In article PMC6827283, “A Na^+ leak channel cloned from Trichoplax adhaerens extends extracellular pH and Ca^2+ sensing for the DEG/ENaC family close to the base of Metazoa” (The Journal of Biological Chemistry, 2019):

What was measured:
TadNaC6 [1] = molecular target: T1, TadNaC6 (Trichoplax adhaerens, UniProt A0A5J6BVG3); test: whole-cell patch clamp, CHO-K1 cells; format: cell-based; details: agonist (activation); perfusion from pH 5 to pH 7.5 (figure legend pH 7.4); 10 μM to 3 mM tested; no EC50
T1 construct: gene ASIC6; full-length untagged channel from pTadNaC6-IR-EGFP (pIRES2-EGFP, EGFP expressed separately) in CHO-K1 cells; functional homomer, trimer by homology; cloning primers encode N-terminus MMAKGKIDH and C-terminus ADATNPDM-stop
T1 sequence (A0A5J6BVG3 1-492): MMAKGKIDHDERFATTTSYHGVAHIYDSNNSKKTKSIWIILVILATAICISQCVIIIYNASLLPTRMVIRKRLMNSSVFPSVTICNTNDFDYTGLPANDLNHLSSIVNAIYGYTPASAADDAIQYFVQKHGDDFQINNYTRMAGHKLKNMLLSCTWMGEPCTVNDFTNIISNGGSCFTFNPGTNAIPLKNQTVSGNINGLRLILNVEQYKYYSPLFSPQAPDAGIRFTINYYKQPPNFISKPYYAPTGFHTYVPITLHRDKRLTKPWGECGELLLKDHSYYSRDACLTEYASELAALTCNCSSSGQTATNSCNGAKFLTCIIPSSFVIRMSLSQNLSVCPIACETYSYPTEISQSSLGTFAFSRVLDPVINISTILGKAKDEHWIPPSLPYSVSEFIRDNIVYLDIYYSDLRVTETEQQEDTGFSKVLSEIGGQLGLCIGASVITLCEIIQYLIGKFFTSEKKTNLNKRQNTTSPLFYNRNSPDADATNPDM

TadNaC6 [2] = molecular target: T1, TadNaC6; test: whole-cell patch clamp, CHO-K1 cells; format: cell-based

Row | IC50 (TadNaC6 [2]) [µM] | Compound | fold current at 3 mM relative to pH 9 without amiloride (TadNaC6 [1])
1 | – | N=C(N)NC(=O)c1nc(Cl)c(N)nc1N [amiloride] | ~ 12 fold
2 | 578 ± 69.4 | N=C(N)c1ccc(/N=N/Nc2ccc(C(=N)N)cc2)cc1 [diminazene] | –
